Source: publication PMC4644822, “Extracellular α-Galactosidase from Trichoderma sp. (WF-3): Optimization of Enzyme Production and Biochemical Characterization” (Biotechnology Research International, 2015)

Test system: T1, extracellular α-galactosidase from Trichoderma sp. (WF-3)
T1 construct: gene agl1; native secreted enzyme, unpurified culture filtrate
Assay: p-nitrophenol release at […] nm, Lineweaver-Burk plot
Format: biochemical
Settings: culture filtrate (unpurified); standard assay 0.05 M sodium acetate pH 5.0, 50 °C, 10 min; 0.05-4.5 mM substrate; read-out: apparent K m

Km: 500 µM
SMILES: O=[N+]([O-])c1ccc(O[C@H]2O[C@H](CO)[C@H](O)[C@H](O)[C@H]2O)cc1 [pNPGal, p-nitrophenyl-α-D-galactopyranoside]
